Activity calls are given as the source filed them. Rule as the data show it, for most assays here: actives have a measured Kd and inactives only a lower limit.
How the values were obtained:
Aurora kinase A = biological target: T1, Aurora kinase A (Homo sapiens, UniProt O14965)
T1 sequence (O14965 whole entry): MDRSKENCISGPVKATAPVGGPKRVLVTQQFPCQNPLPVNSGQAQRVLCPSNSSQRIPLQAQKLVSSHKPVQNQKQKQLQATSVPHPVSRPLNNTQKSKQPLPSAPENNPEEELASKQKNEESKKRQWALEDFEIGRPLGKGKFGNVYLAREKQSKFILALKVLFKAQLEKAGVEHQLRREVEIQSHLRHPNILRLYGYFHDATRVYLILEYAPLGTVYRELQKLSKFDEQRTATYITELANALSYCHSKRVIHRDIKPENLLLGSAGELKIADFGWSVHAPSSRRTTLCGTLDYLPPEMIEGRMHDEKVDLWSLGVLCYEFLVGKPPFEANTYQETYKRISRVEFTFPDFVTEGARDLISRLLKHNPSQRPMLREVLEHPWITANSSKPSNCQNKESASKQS

[1] = biological target: Calcium/calmodulin-dependent protein kinase type II subunit gamma (Homo sapiens, UniProt Q13555)
[2] = biological target: Ribosomal protein S6 kinase alpha-5 (Homo sapiens, UniProt O75582)
[3] = biological target: T2, Serine/threonine-protein kinase Nek3 (Homo sapiens, UniProt P51956)
T2 sequence (P51956 whole entry): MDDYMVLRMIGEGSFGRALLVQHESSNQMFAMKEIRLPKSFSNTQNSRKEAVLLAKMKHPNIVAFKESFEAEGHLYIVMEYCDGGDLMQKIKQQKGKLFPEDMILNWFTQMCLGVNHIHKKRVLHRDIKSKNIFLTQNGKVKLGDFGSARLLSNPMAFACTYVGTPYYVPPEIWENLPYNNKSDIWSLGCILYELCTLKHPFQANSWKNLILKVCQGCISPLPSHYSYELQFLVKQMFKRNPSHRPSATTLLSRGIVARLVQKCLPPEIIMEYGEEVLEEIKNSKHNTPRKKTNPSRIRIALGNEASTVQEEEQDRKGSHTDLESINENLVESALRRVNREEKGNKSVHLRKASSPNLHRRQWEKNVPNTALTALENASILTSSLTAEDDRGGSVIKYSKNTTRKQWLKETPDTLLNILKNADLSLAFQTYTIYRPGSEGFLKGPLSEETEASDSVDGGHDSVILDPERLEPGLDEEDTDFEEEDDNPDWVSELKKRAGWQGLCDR

[4] = biological target: T3, Phosphatidylinositol 5-phosphate 4-kinase type-2 gamma (Homo sapiens, UniProt Q8TBX8)
T3 sequence (Q8TBX8 whole entry): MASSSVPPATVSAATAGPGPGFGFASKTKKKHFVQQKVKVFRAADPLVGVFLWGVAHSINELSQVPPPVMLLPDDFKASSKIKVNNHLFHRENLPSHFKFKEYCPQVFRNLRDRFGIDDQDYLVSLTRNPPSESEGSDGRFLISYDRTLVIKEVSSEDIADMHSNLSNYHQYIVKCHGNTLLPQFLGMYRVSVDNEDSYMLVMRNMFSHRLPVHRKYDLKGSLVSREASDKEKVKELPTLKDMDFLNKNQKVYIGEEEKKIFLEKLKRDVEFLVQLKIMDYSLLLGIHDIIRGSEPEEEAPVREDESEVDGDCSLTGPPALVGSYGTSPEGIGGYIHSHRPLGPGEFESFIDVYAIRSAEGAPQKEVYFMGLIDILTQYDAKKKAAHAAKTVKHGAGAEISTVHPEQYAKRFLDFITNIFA

[5] = biological target: T4, EKC/KEOPS complex subunit TP53RK (Homo sapiens, UniProt Q96S44)
T4 sequence (Q96S44 whole entry): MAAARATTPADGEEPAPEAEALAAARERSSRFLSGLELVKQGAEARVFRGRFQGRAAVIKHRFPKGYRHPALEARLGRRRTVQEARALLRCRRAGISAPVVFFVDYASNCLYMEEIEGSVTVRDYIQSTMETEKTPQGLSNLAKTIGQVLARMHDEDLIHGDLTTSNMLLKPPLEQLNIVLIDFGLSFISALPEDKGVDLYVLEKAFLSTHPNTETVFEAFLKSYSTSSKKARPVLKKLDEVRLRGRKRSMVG

[6] = biological target: ATP-dependent RNA helicase DDX3X (Homo sapiens, UniProt O00571)
Activated CDC42 kinase 1 = Activated CDC42 kinase 1 (Homo sapiens, UniProt Q07912)
[7] = biological target: S-adenosylmethionine synthase isoform type-2 (Homo sapiens, UniProt P31153)
[8] = biological target: Serine/threonine-protein kinase PAK 4 (Homo sapiens, UniProt O96013)
[9] = biological target: Bone morphogenetic protein receptor type-1B (Homo sapiens, UniProt O00238)
[10] = biological target: Mitogen-activated protein kinase 1 (Homo sapiens, UniProt P28482)
[11] = biological target: BMP-2-inducible protein kinase (Homo sapiens, UniProt Q9NSY1)
Also: in the data inactive means no Kd found up to 30 µM.

Chain of Serine/threonine-protein kinase PAK 4 (O96013 whole entry): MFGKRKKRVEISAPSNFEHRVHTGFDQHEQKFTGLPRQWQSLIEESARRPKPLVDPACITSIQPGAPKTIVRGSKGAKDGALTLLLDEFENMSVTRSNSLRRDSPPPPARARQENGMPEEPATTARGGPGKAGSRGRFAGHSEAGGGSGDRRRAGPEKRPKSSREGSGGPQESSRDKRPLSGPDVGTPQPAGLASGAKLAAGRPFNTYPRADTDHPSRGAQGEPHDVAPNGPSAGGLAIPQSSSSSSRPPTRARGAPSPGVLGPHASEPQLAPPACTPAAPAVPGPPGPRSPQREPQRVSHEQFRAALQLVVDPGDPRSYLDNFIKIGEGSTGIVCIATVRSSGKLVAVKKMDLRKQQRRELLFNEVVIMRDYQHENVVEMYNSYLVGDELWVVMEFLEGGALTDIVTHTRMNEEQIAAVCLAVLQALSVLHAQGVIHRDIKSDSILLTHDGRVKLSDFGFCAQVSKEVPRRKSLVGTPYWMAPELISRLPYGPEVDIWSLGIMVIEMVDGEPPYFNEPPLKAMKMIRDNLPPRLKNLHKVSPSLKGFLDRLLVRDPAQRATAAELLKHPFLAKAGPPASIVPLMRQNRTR
Chain of S-adenosylmethionine synthase isoform type-2 (P31153 whole entry, canonical isoform): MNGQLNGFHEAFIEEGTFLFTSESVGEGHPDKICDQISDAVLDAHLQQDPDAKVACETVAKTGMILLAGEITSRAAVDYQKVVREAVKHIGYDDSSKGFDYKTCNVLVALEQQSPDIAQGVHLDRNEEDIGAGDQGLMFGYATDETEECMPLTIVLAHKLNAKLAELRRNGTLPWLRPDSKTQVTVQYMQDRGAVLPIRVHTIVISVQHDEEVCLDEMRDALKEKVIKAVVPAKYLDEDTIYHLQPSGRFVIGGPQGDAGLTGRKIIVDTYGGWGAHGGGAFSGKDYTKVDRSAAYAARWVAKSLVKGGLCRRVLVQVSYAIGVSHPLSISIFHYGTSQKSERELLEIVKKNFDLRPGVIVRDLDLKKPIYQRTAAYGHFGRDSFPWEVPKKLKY
Chain of Bone morphogenetic protein receptor type-1B (O00238 whole entry): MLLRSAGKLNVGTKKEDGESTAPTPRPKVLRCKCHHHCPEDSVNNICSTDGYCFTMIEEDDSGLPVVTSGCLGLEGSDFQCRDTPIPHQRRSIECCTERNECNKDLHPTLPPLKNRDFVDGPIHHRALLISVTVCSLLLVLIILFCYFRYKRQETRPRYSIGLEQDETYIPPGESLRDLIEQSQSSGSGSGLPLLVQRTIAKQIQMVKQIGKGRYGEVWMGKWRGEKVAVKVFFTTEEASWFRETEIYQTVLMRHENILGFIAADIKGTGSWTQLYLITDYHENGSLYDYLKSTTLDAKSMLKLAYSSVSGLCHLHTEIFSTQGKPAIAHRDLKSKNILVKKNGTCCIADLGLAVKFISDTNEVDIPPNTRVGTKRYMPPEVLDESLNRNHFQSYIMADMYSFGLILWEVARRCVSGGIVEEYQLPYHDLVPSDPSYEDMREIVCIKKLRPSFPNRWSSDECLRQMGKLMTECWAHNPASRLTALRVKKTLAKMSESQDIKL
Chain of Activated CDC42 kinase 1 (Q07912 whole entry, canonical isoform): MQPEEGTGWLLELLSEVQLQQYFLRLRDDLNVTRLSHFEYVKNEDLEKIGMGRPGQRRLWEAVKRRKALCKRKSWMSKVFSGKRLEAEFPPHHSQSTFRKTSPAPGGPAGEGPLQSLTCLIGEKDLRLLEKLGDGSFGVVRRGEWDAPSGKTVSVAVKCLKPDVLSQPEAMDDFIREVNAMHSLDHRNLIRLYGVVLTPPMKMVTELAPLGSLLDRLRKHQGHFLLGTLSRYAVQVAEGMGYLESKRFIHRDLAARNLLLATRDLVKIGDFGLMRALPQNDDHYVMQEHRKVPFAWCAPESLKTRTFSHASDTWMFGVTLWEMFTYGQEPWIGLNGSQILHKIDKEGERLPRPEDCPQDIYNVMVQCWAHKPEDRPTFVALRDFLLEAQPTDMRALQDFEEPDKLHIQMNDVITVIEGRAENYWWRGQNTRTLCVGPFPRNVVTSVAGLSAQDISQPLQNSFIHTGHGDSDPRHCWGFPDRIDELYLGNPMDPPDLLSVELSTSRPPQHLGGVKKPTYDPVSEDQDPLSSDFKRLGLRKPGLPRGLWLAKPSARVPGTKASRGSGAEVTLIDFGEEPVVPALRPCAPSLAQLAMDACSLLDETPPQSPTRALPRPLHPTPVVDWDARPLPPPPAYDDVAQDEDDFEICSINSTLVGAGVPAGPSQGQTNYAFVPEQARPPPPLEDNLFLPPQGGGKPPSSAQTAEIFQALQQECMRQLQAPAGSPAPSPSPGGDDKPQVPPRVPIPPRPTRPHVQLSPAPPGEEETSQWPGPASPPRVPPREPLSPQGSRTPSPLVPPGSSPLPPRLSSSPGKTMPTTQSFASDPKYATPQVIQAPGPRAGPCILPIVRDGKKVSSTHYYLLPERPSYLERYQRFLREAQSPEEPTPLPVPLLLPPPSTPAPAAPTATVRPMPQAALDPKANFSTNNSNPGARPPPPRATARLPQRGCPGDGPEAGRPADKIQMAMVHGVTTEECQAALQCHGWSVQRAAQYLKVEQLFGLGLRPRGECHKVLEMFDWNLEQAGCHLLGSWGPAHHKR
Chain of Mitogen-activated protein kinase 1 (P28482 whole entry): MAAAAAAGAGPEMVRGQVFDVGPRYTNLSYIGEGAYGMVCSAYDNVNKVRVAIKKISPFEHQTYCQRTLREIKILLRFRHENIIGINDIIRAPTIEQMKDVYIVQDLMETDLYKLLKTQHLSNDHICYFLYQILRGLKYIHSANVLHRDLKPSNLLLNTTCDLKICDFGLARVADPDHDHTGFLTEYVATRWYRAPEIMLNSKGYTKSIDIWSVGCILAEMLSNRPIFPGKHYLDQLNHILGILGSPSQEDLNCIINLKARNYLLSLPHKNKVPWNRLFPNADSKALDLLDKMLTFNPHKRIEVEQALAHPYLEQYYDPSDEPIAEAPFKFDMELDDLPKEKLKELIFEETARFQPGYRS
Chain of ATP-dependent RNA helicase DDX3X (O00571 whole entry): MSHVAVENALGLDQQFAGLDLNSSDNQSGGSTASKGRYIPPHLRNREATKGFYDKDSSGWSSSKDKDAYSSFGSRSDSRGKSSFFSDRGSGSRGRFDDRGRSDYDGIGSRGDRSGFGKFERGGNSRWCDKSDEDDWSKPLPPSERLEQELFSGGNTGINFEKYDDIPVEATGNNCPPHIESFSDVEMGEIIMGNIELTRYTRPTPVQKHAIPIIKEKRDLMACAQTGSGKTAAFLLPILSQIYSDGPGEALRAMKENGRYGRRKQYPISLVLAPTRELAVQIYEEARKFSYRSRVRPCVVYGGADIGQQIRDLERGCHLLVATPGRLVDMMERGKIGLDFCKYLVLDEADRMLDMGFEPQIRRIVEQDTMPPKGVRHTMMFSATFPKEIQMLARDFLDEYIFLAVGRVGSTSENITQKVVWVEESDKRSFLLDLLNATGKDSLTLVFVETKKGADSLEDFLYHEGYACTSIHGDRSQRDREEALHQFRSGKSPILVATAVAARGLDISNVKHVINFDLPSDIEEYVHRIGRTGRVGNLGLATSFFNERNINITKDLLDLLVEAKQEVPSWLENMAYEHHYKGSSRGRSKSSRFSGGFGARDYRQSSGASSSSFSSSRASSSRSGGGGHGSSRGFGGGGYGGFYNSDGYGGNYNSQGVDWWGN
Chain of BMP-2-inducible protein kinase (Q9NSY1 whole entry): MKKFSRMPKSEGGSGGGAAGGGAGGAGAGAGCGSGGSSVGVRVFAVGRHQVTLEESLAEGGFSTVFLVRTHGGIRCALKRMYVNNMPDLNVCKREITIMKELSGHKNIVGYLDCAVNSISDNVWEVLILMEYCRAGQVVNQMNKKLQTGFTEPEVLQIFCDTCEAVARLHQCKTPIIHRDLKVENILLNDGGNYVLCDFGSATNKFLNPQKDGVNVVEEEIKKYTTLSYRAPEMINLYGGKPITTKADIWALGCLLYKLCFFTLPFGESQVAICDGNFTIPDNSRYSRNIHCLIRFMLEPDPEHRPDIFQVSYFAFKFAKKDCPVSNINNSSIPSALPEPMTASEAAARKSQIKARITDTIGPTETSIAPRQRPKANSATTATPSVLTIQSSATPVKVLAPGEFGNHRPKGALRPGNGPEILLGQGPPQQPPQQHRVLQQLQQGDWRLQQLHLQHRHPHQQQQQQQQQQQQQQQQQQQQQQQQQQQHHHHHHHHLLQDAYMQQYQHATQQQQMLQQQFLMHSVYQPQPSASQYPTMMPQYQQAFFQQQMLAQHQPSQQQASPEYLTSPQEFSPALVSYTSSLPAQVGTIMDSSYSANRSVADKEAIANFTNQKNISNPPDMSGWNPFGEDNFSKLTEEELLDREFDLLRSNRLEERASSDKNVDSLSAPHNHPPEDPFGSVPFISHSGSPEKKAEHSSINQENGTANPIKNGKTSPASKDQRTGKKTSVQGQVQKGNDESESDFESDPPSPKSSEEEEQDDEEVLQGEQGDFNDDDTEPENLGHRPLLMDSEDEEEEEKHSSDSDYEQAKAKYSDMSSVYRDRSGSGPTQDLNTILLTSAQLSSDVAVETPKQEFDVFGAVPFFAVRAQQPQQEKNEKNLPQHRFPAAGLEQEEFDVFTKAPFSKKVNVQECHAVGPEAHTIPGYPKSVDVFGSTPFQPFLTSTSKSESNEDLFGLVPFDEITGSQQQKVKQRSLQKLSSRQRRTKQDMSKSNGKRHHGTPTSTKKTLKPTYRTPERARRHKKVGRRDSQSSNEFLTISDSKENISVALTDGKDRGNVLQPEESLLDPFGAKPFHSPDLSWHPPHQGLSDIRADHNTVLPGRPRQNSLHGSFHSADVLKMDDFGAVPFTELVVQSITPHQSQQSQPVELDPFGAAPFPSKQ

Row | Kd (Aurora kinase A) | Kd [1] | Kd [2] | Kd [3] | Kd [4] | Kd [5] | Kd [6] | Kd (Activated CDC42 kinase 1) | Kd [7] | Kd [8] | Kd [9] | Kd [10] | Kd [11] | SMILES
1 | > 30 µM (inactive) | > 30 µM (inactive) | > 30 µM (inactive) | > 30 µM (inactive) | 4.66 µM (active) | > 30 µM (inactive) | > 30 µM (inactive) | > 30 µM (inactive) | > 30 µM (inactive) | > 30 µM (inactive) | > 30 µM (inactive) | > 30 µM (inactive) | > 30 µM (inactive) | C#Cc1cccc(Nc2ncnc3cc4c(cc23)OCCOCCOCCO4)c1 [ICOTINIB]
2 | > 30 µM (inactive) | > 30 µM (inactive) | > 30 µM (inactive) | > 30 µM (inactive) | > 30 µM (inactive) | > 30 µM (inactive) | > 30 µM (inactive) | > 30 µM (inactive) | > 30 µM (inactive) | > 30 µM (inactive) | 1.63 µM | > 30 µM (inactive) | > 30 µM (inactive) | CC(C)(O)CC(=O)NCCn1ccc2ncnc(Nc3ccc(Oc4cccc(C(F)(F)F)c4)c(Cl)c3)c21 [TAK-285]
3 | > 30 µM (inactive) | > 30 µM (inactive) | > 30 µM (inactive) | > 30 µM (inactive) | > 30 µM (inactive) | > 30 µM (inactive) | > 30 µM (inactive) | > 30 µM (inactive) | > 30 µM (inactive) | > 30 µM (inactive) | > 30 µM (inactive) | > 30 µM (inactive) | > 30 µM (inactive) | CNC(=O)c1cccc(-c2ccc3c(N4CCOC[C@@H]4C)nc(N4CCOC[C@@H]4C)nc3n2)c1 [VISTUSERTIB]
4 | > 30 µM (inactive) | > 30 µM (inactive) | > 30 µM (inactive) | > 30 µM (inactive) | > 30 µM (inactive) | > 30 µM (inactive) | > 30 µM (inactive) | > 30 µM (inactive) | > 30 µM (inactive) | > 30 µM (inactive) | > 30 µM (inactive) | > 30 µM (inactive) | > 30 µM (inactive) | COc1cc2ncnc3c2cc1OCCCCCN(C)Cc1ccc(Br)cc1N3 [JNJ-26483327]
5 | > 30 µM (inactive) | 0.738 µM (active) | > 30 µM (inactive) | > 30 µM (inactive) | > 30 µM (inactive) | > 30 µM (inactive) | > 30 µM (inactive) | 0.208 µM (active) | > 30 µM (inactive) | > 30 µM (inactive) | > 30 µM (inactive) | > 30 µM (inactive) | 1.71 µM (active) | COc1cccc(Nc2ncnn3ccc(CN4CC[C@@H](N)[C@H](O)C4)c23)c1 [BMS-690514]
6 | > 30 µM (inactive) | > 30 µM (inactive) | > 30 µM (inactive) | > 30 µM (inactive) | > 30 µM (inactive) | > 30 µM (inactive) | > 30 µM (inactive) | > 30 µM (inactive) | > 30 µM (inactive) | > 30 µM (inactive) | > 30 µM (inactive) | > 30 µM (inactive) | > 30 µM (inactive) | COc1cc2ncnc(Nc3ccc(O)cc3)c2cc1OC [WHI-P131]
7 | > 30 µM (inactive) | > 30 µM (inactive) | > 30 µM (inactive) | > 30 µM (inactive) | > 30 µM (inactive) | > 30 µM (inactive) | > 30 µM (inactive) | > 30 µM (inactive) | > 30 µM (inactive) | > 30 µM (inactive) | > 30 µM (inactive) | 1.23 µM (active) | > 30 µM (inactive) | O[C@H]1CC[C@H](Nc2ncc3nc(Nc4c(F)cc(F)cc4F)n([C@H]4CCOC4)c3n2)CC1 [TANZISERTIB]

The next lines start with the compound.

Row | SMILES | Kd (Aurora kinase A) | Kd [1] | Kd [2] | Kd [3] | Kd [4] | Kd [5] | Kd [6] | Kd (Activated CDC42 kinase 1) | Kd [7] | Kd [8] | Kd [9] | Kd [10] | Kd [11]
8 | Cc1c(Cn2c(C)nc3c(C(=O)O)cc(N4CCOCC4)cc32)cccc1C(F)(F)F [GSK-2636771] | > 30 µM (inactive) | > 30 µM (inactive) | > 30 µM (inactive) | > 30 µM (inactive) | > 30 µM (inactive) | > 30 µM (inactive) | > 30 µM (inactive) | > 30 µM (inactive) | > 30 µM (inactive) | > 30 µM (inactive) | > 30 µM (inactive) | > 30 µM (inactive) | > 30 µM (inactive)
9 | COc1ccc2c(OCc3nnc4ccc(-c5ccccc5)nn34)ccnc2c1 [AMG-208] | > 30 µM (inactive) | > 30 µM (inactive) | > 30 µM (inactive) | > 30 µM (inactive) | > 30 µM (inactive) | > 30 µM (inactive) | > 30 µM (inactive) | > 30 µM (inactive) | > 30 µM (inactive) | > 30 µM (inactive) | > 30 µM (inactive) | > 30 µM (inactive) | > 30 µM (inactive)
10 | NC[C@@](O)(c1ccc(Cl)cc1)c1ccc(-c2cn[nH]c2)cc1 [AT-13148] | > 30 µM (inactive) | > 30 µM (inactive) | > 30 µM (inactive) | > 30 µM (inactive) | > 30 µM (inactive) | > 30 µM (inactive) | > 30 µM (inactive) | > 30 µM (inactive) | > 30 µM (inactive) | > 30 µM (inactive) | > 30 µM (inactive) | > 30 µM (inactive) | > 30 µM (inactive)
11 | Cn1c(=O)c(F)c(Nc2ccc(I)cc2F)c2c(=O)n(C[C@@H](O)CO)cnc21 [TAK-733] | > 30 µM (inactive) | > 30 µM (inactive) | > 30 µM (inactive) | > 30 µM (inactive) | > 30 µM (inactive) | > 30 µM (inactive) | > 30 µM (inactive) | > 30 µM (inactive) | > 30 µM (inactive) | > 30 µM (inactive) | > 30 µM (inactive) | > 30 µM (inactive) | > 30 µM (inactive)
12 | C=CCN(/C=C1/C(=O)O[C@H](COC)[C@@]2(C)C1=C(O)C(=O)C1=C2[C@H](OC(C)=O)C[C@]2(C)C(=O)CC[C@@H]12)CC=C [SONOLISIB] | > 30 µM (inactive) | > 30 µM (inactive) | > 30 µM (inactive) | > 30 µM (inactive) | > 30 µM (inactive) | > 30 µM (inactive) | > 30 µM (inactive) | > 30 µM (inactive) | > 30 µM (inactive) | > 30 µM (inactive) | > 30 µM (inactive) | > 30 µM (inactive) | > 30 µM (inactive)
13 | Cc1ccc(C(=O)Nc2ccc(Oc3cc4cnn(C)c4cc3-c3cn[nH]c3)c(F)c2)c(=O)n1-c1ccc(F)cc1 [MERESTINIB] | > 30 µM (inactive) | > 30 µM (inactive) | > 30 µM (inactive) | > 30 µM (inactive) | > 30 µM (inactive) | > 30 µM (inactive) | > 30 µM (inactive) | > 30 µM (inactive) | > 30 µM (inactive) | > 30 µM (inactive) | > 30 µM (inactive) | > 30 µM (inactive) | > 30 µM (inactive)

From ChEMBL document CHEMBL3991601, “The target landscape of clinical kinase drugs” (Science, 2017)
